Here are results for one compound from patent US7935823B2 (priority 2007, dated 2011).

The structures appear in SMILES notation.

Data set [1] deals with SK—N—SH human neuroblastoma cells. Particulars: ionomycin-treated cells (40 percent without drug); picomolar concentration; cited from earlier work.
The next data set has as its target NMDA receptor. Particulars: read-out: NMDA receptor inhibition constant (Ki); cited from earlier work.
Data set [2] concerns primary rat cortical neurons. Particulars: cultured three days; picomolar concentrations; compared with BDNF at maximally effective concentrations; cited from earlier work.
For the next data set, the system named is C57/B female mice. Briefly: Geroprotector activity in aging mice. The data set is classed as in vivo. Particulars: 3 mg/kg per day in drinking water. Here is the method:
Dimebon was evaluated as an agent that prolongs life and improves the quality of life (characterized by changes in the amount of pathologies that accompany ageing) in the laboratory animals.
Experiments were conducted with C57/B female mice, starting from their age of 12 months. Mice were kept on cells, 10 animals per a cell. Both control and experimental group included 50 animals in each group. […] The day-night cycle was 12 hours.
Prior to the experiment, daily and weekly water consumption by the animals in one cell was measured. Dimebon was added in water in such amount that each animal would consume 3 mg/kg of Dimebon per day in average. Bottles with water containing Dimebon were replaced every 7 days. Animals in the control group were receiving pure water.
Prior to the experiment, all the animals were weighed, and an average weight was determined in every group, every cell, as well as the weight of all animals in every cell. The condition of skin, hair, and eyes were also determined by visual inspection. […] Evaluation of all these parameters was conducted on a monthly basis.
Statistics were calculated using Student T-test and ‘Chi-squared’ criteria.

The test system of data set [3] is ion channels associated with glutamate receptors. Briefly: Glutamate-stimulated calcium-ion uptake in rat brain synaptosomes. Particulars: P2-fraction of synaptosomes from newborn rat brain; initial screening 5 uM. Here is the method:
Evaluation of the calcium-blocking properties of dimebon was conducted with P2-fraction of synaptosomes, which were isolated from the brain of newborn (8-11 days) rats according to the protocol described in [Bachurin et al. Neuroprotective and cognition enhancing properties of MK-801 flexible analogs. Structure-activity relationships./Ann. N.Y. Acad. Sci., 2001, v. 939, pp. 219-235]. In this test, the ability of the compounds to inhibit a specific uptake of calcium ions via ion channels associated with glutamate receptors was determined.
Synaptosomes were placed into the incubation buffer A (132 mM NaCl, 5 mM KCl, 5 mM HEPES) and were kept at 0 degrees Celsius (“C”) during the entire experiment. Aliquots of synaptosomes (50µl) were placed in the media A, containing investigated compounds and a preparation of the radiolabeled calcium, ^45Ca. […] A specific calcium uptake was calculated using the following equation K(43/21)=[(Ca4−Ca3)/(Ca2−Ca1)]*100% where: Ca1 is a calcium uptake in a control experiment (no glutamate or test compound added); Ca2 is a calcium uptake in the presence of glutamate only (Glutamate Induced Calcium Uptake—GICU); Ca3 is a calcium uptake in the presence of a test compound only (no glutamate added); Ca4 is a calcium uptake in the presence of both glutamate and a test compound.

Data set [4] has as its system mitochondrial permeability transition pores. Particulars: MPP(+) and beta-amyloid fragment 25-35; cited from earlier work.
Data set [5] has as its system patients with mild to moderate AD. Particulars: cited from earlier work.
The conditions of data set [6]: human clinical studies; cited from earlier work.
Data set [7] deals with SK—N—SH human neuroblastoma cells. Conditions: ionomycin-treated cells (70 percent without drug); picomolar concentrations; cited from earlier work.
Data set [8] has as its system neuroblastoma line (SH—SY5Y). Conditions: pre-treatment with one nano-molar; cited from earlier work.
The target of the next data set is acetylcholinesterase (Homo sapiens, UniProt P22303). Conditions: recombinant enzyme and fresh blood samples from three volunteers; read-out: acetylcholinesterase half-maximal inhibitory concentration (IC50); cited from earlier work.
Sequence of acetylcholinesterase (P22303 32-574 limits assumed): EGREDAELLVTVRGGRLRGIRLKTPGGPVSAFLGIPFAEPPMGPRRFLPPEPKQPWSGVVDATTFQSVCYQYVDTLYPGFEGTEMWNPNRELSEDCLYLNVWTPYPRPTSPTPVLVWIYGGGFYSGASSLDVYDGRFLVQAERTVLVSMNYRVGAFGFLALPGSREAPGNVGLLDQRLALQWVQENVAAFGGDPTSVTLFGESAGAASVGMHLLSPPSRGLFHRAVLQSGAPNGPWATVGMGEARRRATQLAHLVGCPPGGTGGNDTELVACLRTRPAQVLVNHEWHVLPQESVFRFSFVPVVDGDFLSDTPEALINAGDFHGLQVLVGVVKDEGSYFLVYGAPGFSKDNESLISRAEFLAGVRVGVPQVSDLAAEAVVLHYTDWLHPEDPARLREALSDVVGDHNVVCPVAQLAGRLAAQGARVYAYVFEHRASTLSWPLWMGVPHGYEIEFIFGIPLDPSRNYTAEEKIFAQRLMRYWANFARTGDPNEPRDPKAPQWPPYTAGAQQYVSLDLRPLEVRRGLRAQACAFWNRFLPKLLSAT

In general, Ki refers to the dissociation constant of the complex between target and ligand, obtained from inhibition or displacement. As for `Cc1ccc2c(c1)c1c(n2CCc2ccc(C)nc2)CCN(C)C1` [dimebon], the “cell survival (MTT) relative to control cells” value in [1] is 75-85%. The Ki on NMDA receptor was 97 µM. In data set [2], the neurite outgrowth result is “increased neurite outgrowth as well as did BDNF”. Besides, in the data set on C57/B female mice, the age-related weight depletion entry was “No weight depletion was observed”; the “development of non-fatal pathologies (loss of vision and alopecia)” value is listed as “slowing of the development of non-fatal pathologies”. The probability of death entry in the data set with C57/B female mice (from age 12 months) is reported as “lower in all age groups”. Further, in the data set with C57/B female mice (13 to 20 months old mice), the “amount of animals with cataract vs control” value is on record as “significantly less”. In addition, the “calcium-blocking properties (specific glutamate-induced 45Ca uptake)” value in [3] is recorded as “pronounced calcium-blocking properties”. Moreover, the “prevention of neurotoxin-induced opening of mitochondrial pores” value in [4] is “prevented”. Besides, the “clinical endpoints and tolerability in one-year trial” value in data set [5] (one-year randomized double-blinded placebo-controlled trial, 183 patients) was “met all five clinical endpoints with strong statistical significance, and was very well tolerated”. The safety and tolerability entry in data set [5] (six-month open-label extension, exposure to 18 months) was “no safety or tolerability issues”. Moreover, the “participants/patients reporting gastrointestinal problems” value in [6] was “less than 3%”. Further, the “JC-1 red/green ratio relative to control cells” value in data set [7] was 85-90%. In addition, the “protection of mitochondrial function (TMRM probe)” value in data set [8] is on record as “protected cells from ionomycin-induced stress”. Also, the IC50 on acetylcholinesterase is 31 to 72 µM.
